Measured values taken from patent US20170354655A1, “TLR INHIBITOR AND BRUTON'S TYROSINE KINASE INHIBITOR COMBINATIONS” (Pharmacyclics LLC, priority 2014, published 2017).

Key:
Format in all cases: cell-based
HBL1 cells = assay: Combined drug treatment, CellTiter-Glo cell viability assay in HBL1 cell line
Method: (§1) A 40 μL aliquot of CellTiter-Glo® reagent was added directly into each well of the 96-W plate. The plate was then shaken on a Shaker (Labsystem Wellmix) at speed 5 for 10-20 min at room temperature. Next, about 100 μL of the mixed medium was transferred to a white, non-transparent, flat bottom 96-W plate for assaying. A Flexstation 3 luminometer was used for detecting and measuring the luminescent signals. Measurements were taken at room temperature.
(§2) The luminescent measurements were subsequently processed and analyzed using CalcuSyn (CI) and Chalice Analyzer (synergy score). […] In general, the resulting combination index (CI) obtained from the Chou-Talalay method defines quantitatively for additive effect (CI=1), synergism (CI<1), and antagonism (CI>1) in drug combinations. […] Biotechnol.
(§3) Cell growth effects were determined by the CellTiter-Glo® luminescent cell viability assay (Promega). The combination index (C.I.), a drug interactivity measurement was calculated with Calcusyn. Synergy scores were calculated by the Chalice Analyzer (Horizon CombinatoRx). ApoDETECT Annexin V-FITC Kit was used to detect apoptotic cell population. LC3B antibody (Cell Signaling) was used for Western blot analysis to detect autophagic marker LC3B-II. HBL-1 cells were plated in MethoCult (StemCell Technologies) and number of colonies was counted 7 days after drug treatment to determine the effect on colony formation. TLR related gene expression was determined by using RT^2 Profiler PCR Array (Qiagen).

TMD8 cells = assay: Combined drug treatment, CellTiter-Glo cell viability assay in TMD8 cell line; conditions: for luminescent signal (CellTiter-Glo): test ODN 1 μM or chloroquine 10 μM, 3 days; for average CI value for the ibrutinib and chloroquine combination: CalcuSyn; for synergy score for the ibrutinib and chloroquine combination: Chalice Analyzer
Method: 200 μl of TMD8 wt cells (1.0×10^4 cells) at 5.0×10^4 cells/ml was plated into each well of a 96-well plate. The cells were grown in RPMI-10P medium.
The TLR9 antagonists used for this experiment included ODN 4084-F, ODN INH-1, ODN INH-18, and ODN TTAGGG. […] The TLR9 agonists used for this experiment included ODN 2006, ODN 2216, and ODN 2395. The TLR9 agonists were used to stimulate TLR signaling. Chloroquine is a non-specific TLR antagonist.
The stock solutions for the TLR9 antagonists and the TLR9 agonists were each prepared at 500 μM concentration. The stock solution for chloroquine diphosphate was prepared at 50 mM concentration.
The 96-W plate was then incubated for 3 days. Cell viability was examined using a CellTiter-Glo® assay.
as §1
CellTiter-Glo® reagents were thawed prior to use. Cells pre-plated onto a second 96-W plate and incubated at room temperature for 30 minutes were used for calibration purposes.
The luminescent measurements were subsequently processed and analyzed using CalcuSyn (CI) and Chalice Analyzer (synergy score). CalcuSyn performs the multiple drug dose-effect calculations using the Median Effect methods described by T-C Chou and P. Talalay in “Analysis of combined drug effects: a new look at a very old problem,” Trends Pharmacol. Sci. 4:450-454 (1983). In general, the resulting combination index (CI) obtained from the Chou-Talalay method defines quantitatively for additive effect (CI=1), synergism (CI<1), and antagonism (CI>1) in drug combinations. […] Biotechnol. 27(7):659-666 (2009).
as §3

OCI-LY10 cells = assay: Combined drug treatment, CellTiter-Glo cell viability assay in OCI-LY10 cell line; conditions: for synergy score for the chloroquine/ibrutinib combination: LY10 cells
Method: as §1, §2, §3

`CCN(CC)CCCC(C)Nc1ccnc2cc(Cl)ccc12` (stereo not shown) [Chloroquine, chloroquine] was tested, and the “synergy with ibrutinib (in words)” value (HBL1 cells) was “Synergy was observed”, the “CI value for the chloroquine/ibrutinib combination” value (HBL1 cells; with agonist ODN2216) was 0.35 and the “synergy score for the chloroquine/ibrutinib combination” value (HBL1 cells; with agonist ODN2216) was 3.5. For the same molecule, the “CI value for the chloroquine/ibrutinib combination” value (HBL1 cells; without agonist ODN2216) was 0.56, the “synergy score for the chloroquine/ibrutinib combination” value (HBL1 cells; without agonist ODN2216) was 3.03 and the “luminescent signal (CellTiter-Glo)” value (TMD8 cells; Control (no TLR9 agonist), ibrutinib 0 nM) was 275515. The “luminescent signal (CellTiter-Glo)” value (TMD8 cells; Control (no TLR9 agonist), ibrutinib 0.0003 nM) was 264724, the “luminescent signal (CellTiter-Glo)” value (TMD8 cells; Control (no TLR9 agonist), ibrutinib 0.0013 nM) was 265058 and the “luminescent signal (CellTiter-Glo)” value (TMD8 cells; Control (no TLR9 agonist), ibrutinib 0.0064 nM) was 271348. For the same molecule, the “luminescent signal (CellTiter-Glo)” value (TMD8 cells; Control (no TLR9 agonist), ibrutinib 0.032 nM) was 276679, the “luminescent signal (CellTiter-Glo)” value (TMD8 cells; Control (no TLR9 agonist), ibrutinib 0.16 nM) was 250469 and the “luminescent signal (CellTiter-Glo)” value (TMD8 cells; Control (no TLR9 agonist), ibrutinib 0.8 nM) was 177291. For the same molecule, the “luminescent signal (CellTiter-Glo)” value (TMD8 cells; Control (no TLR9 agonist), ibrutinib 4 nM) was 86168, the “luminescent signal (CellTiter-Glo)” value (TMD8 cells; Control (no TLR9 agonist), ibrutinib 20 nM) was 78916 and the “luminescent signal (CellTiter-Glo)” value (TMD8 cells; Control (no TLR9 agonist), ibrutinib 100 nM) was 61700. The “luminescent signal (CellTiter-Glo)” value (TMD8 cells; TLR9 agonist ODN 2006 1 μM, ibrutinib 0 nM) was 275829, the “luminescent signal (CellTiter-Glo)” value (TMD8 cells; TLR9 agonist ODN 2006 1 μM, ibrutinib 0.0003 nM) was 258871 and the “luminescent signal (CellTiter-Glo)” value (TMD8 cells; TLR9 agonist ODN 2006 1 μM, ibrutinib 0.0013 nM) was 250534. For the same molecule, the “luminescent signal (CellTiter-Glo)” value (TMD8 cells; TLR9 agonist ODN 2006 1 μM, ibrutinib 0.0064 nM) was 249082, the “luminescent signal (CellTiter-Glo)” value (TMD8 cells; TLR9 agonist ODN 2006 1 μM, ibrutinib 0.032 nM) was 239360 and the “luminescent signal (CellTiter-Glo)” value (TMD8 cells; TLR9 agonist ODN 2006 1 μM, ibrutinib 0.16 nM) was 247058. For the same molecule, the “luminescent signal (CellTiter-Glo)” value (TMD8 cells; TLR9 agonist ODN 2006 1 μM, ibrutinib 0.8 nM) was 138546, the “luminescent signal (CellTiter-Glo)” value (TMD8 cells; TLR9 agonist ODN 2006 1 μM, ibrutinib 4 nM) was 79843 and the “luminescent signal (CellTiter-Glo)” value (TMD8 cells; TLR9 agonist ODN 2006 1 μM, ibrutinib 20 nM) was 67694. The “luminescent signal (CellTiter-Glo)” value (TMD8 cells; TLR9 agonist ODN 2006 1 μM, ibrutinib 100 nM) was 62288, the “luminescent signal (CellTiter-Glo)” value (TMD8 cells; TLR9 agonist ODN 2216 1 μM, ibrutinib 0 nM) was 203015 and the “luminescent signal (CellTiter-Glo)” value (TMD8 cells; TLR9 agonist ODN 2216 1 μM, ibrutinib 0.0003 nM) was 193567. The “luminescent signal (CellTiter-Glo)” value (TMD8 cells; TLR9 agonist ODN 2216 1 μM, ibrutinib 0.0013 nM) was 229545, the “luminescent signal (CellTiter-Glo)” value (TMD8 cells; TLR9 agonist ODN 2216 1 μM, ibrutinib 0.0064 nM) was 200219 and the “luminescent signal (CellTiter-Glo)” value (TMD8 cells; TLR9 agonist ODN 2216 1 μM, ibrutinib 0.032 nM) was 199458. For the same molecule, the “luminescent signal (CellTiter-Glo)” value (TMD8 cells; TLR9 agonist ODN 2216 1 μM, ibrutinib 0.16 nM) was 207276, the “luminescent signal (CellTiter-Glo)” value (TMD8 cells; TLR9 agonist ODN 2216 1 μM, ibrutinib 0.8 nM) was 115898 and the “luminescent signal (CellTiter-Glo)” value (TMD8 cells; TLR9 agonist ODN 2216 1 μM, ibrutinib 4 nM) was 65959. The “luminescent signal (CellTiter-Glo)” value (TMD8 cells; TLR9 agonist ODN 2216 1 μM, ibrutinib 20 nM) was 48838, the “luminescent signal (CellTiter-Glo)” value (TMD8 cells; TLR9 agonist ODN 2216 1 μM, ibrutinib 100 nM) was 44662 and the “luminescent signal (CellTiter-Glo)” value (TMD8 cells; TLR9 agonist ODN 2395 1 μM, ibrutinib 0 nM) was 170080. For the same molecule, the “luminescent signal (CellTiter-Glo)” value (TMD8 cells; TLR9 agonist ODN 2395 1 μM, ibrutinib 0.0003 nM) was 168027, the “luminescent signal (CellTiter-Glo)” value (TMD8 cells; TLR9 agonist ODN 2395 1 μM, ibrutinib 0.0013 nM) was 177301 and the “luminescent signal (CellTiter-Glo)” value (TMD8 cells; TLR9 agonist ODN 2395 1 μM, ibrutinib 0.0064 nM) was 170957. The “luminescent signal (CellTiter-Glo)” value (TMD8 cells; TLR9 agonist ODN 2395 1 μM, ibrutinib 0.032 nM) was 167073, the “luminescent signal (CellTiter-Glo)” value (TMD8 cells; TLR9 agonist ODN 2395 1 μM, ibrutinib 0.16 nM) was 156507 and the “luminescent signal (CellTiter-Glo)” value (TMD8 cells; TLR9 agonist ODN 2395 1 μM, ibrutinib 0.8 nM) was 100658. The “luminescent signal (CellTiter-Glo)” value (TMD8 cells; TLR9 agonist ODN 2395 1 μM, ibrutinib 4 nM) was 69482, the “luminescent signal (CellTiter-Glo)” value (TMD8 cells; TLR9 agonist ODN 2395 1 μM, ibrutinib 20 nM) was 59032 and the “luminescent signal (CellTiter-Glo)” value (TMD8 cells; TLR9 agonist ODN 2395 1 μM, ibrutinib 100 nM) was 55950. For the same molecule, the “synergy with ibrutinib (in words)” value (TMD8 cells; TMD8 cells, whether or not TLR agonist was present) was “Synergy was observed”, the “average CI value for the ibrutinib and chloroquine combination” value (TMD8 cells; TMD8 cells, with agonists) was 0.11 and the “synergy score for the ibrutinib and chloroquine combination” value (TMD8 cells; TMD8 cells, with agonists) was 4.22. For the same molecule, the “average CI value for the ibrutinib and chloroquine combination” value (TMD8 cells; TMD8 cells, without agonists) was 0.40, the “synergy score for the ibrutinib and chloroquine combination” value (TMD8 cells; TMD8 cells, without agonists) was 3.48 and the “CI value for the chloroquine/ibrutinib combination” value (OCI-LY10 cells; LY10, with agonist ODN2216) was 0.59. For the same molecule, the “CI value for the chloroquine/ibrutinib combination” value (OCI-LY10 cells; LY10, without agonist ODN2216) was 0.50, the “synergy score for the chloroquine/ibrutinib combination” value (OCI-LY10 cells; with agonist ODN2216) was 2.63 and the “synergy score for the chloroquine/ibrutinib combination” value (OCI-LY10 cells; without agonist ODN2216) was 2.44. The “synergy with ibrutinib (in words)” value (OCI-LY10 cells; OCI-LY10 cells) was “Synergy was observed”.
